Source: patent publication US20080095810A1, “Nanoparticles Of Chitosan And Polyethyleneglycol As A System For The Administration Of Biologically-Active Molecules” (Advanced In Vitro Cell Technologies, S.L., priority 2005, published 2008)

Tests used:
diabetic rats = assay: glycemic response to an oral glucose administration after intranasal insulin formulations; format: in vivo; settings: 10 U/kg insulin intranasal, compared with acetate buffer
Description: Diabetic rats which had fasted overnight were used to carry out this experiment. Each of the preparations described in Example 7 was nasally administered to them. After one hour, each group of rats received an oral glucose administration of 2 g per each kg of body mass. The blood sugar was measured in blood from samples collected from the tail vein before the glucose administration and after 10, 20, 30, 60, 90 and 120 minutes.

[1] = system: streptozotocin diabetic male Wistar rats; assay: blood sugar after intranasal administration of insulin formulations in diabetic rats; format: in vivo; settings: 10 U/kg insulin intranasal, compared with acetate buffer or with chitosan-PEG nanoparticles
Description: To encapsulate insulin in the chitosan nanoparticles, 2.4 mg of insulin were previously dissolved in an NaOH solution to which 1.2 mL of TPP were later added. This mixture was later added to 3 mL of chitosan. After 5 min with magnetic stirring, the preparation was centrifuged at 10,000 g for 40 min. The supernatant was removed and the precipitate was dissolved in a buffer. For its part, the same process was carried out to prepare the chitosan-PEG nanoparticles, but adding 10 mg/mL of PEG 400 to 2 mg/mL of chitosan.
The rats were considered diabetic when the blood sugar concentration was greater than 400 mg/dl after three weeks of the treatment with streptozotocin.
Fasting rats were used to carry out this experiment. They were divided into different groups depending on the formulation which was to be administered to them. […]
To determine the blood glucose levels, blood samples were collected from the tail vein before the nasal administration and every quarter of an hour until 90 minutes were completed. […] The blood glucose level was immediately determined using a glucose analyzer (Prestige from Chronolyss). […]

With insulin the “effect on glycemic response to oral glucose (in words)” value (diabetic rats) was “did not significantly change this result” and the “effect on blood sugar (in words)” value [1] was “did not significantly change the previous result”.
